Reference: patent US11883435B2, “Compositions and methods for treating a clinical condition through the use of hematopoietic stem cells” (Indiana University Research and Technology Corporation, priority 2017, dated 2024)

Assays:
mouse bone marrow HSCs = test: Number of mouse bone marrow HSCs collected and processed with antioxidants or epigenetic inhibitors (flow cytometry); type: cell-based; settings: collected in ambient air
human cord blood HSC = settings: ambient air (about 21% O2); cited from earlier work
mouse bone marrow HSC = settings: ambient air (about 21% O2); cited from earlier work

Molecule: O=C1O[C@H]([C@@H](O)CO)C(O)=C1OP(=O)(O)O [AAP, ascorbic acid 2-phosphate]
- increase in numbers of HSC (mouse bone marrow HSCs; AAP alone (0.22 mM)): not AAP alone, significantly increased

Molecule: CC(=O)N[C@@H](CS)C(=O)O [NAC, N-Acetyl-Cysteine]
- change in numbers of collected HSCs (mouse bone marrow HSCs; 1 mM NAC): no significant change
- increase in numbers of collected HSCs (mouse bone marrow HSCs; higher dose of NAC (3 mM)): no increase

Molecule: cyclosporine A
- numbers of HSC (human cord blood HSC): increased numbers of HSC
- numbers of HSC (mouse bone marrow HSC): increased numbers of HSC
